Assay results from US11136409B2, “Compositions and methods for identification, assessment, prevention, and treatment of AML using USP10 biomarkers and modulators” (Dana-Farber Cancer Institute, Inc., priority 2016, dated 2021).
pIC50: −log10 of the molar value.

How the values were obtained:
Ba/F3-FLT3-ITD cells = assay: Proliferation of Ba/F3-FLT3-ITD cells; type: cell-based, murine
Excerpt: Nomo-1, P31-FUJ, and NB4 were obtained from Dr. Gary Gilliland. MV4, 11 cells were obtained from Dr. Anthony Letai. Hel, K562, THP, U937, TF-1 and K052 cells were purchased from the American Type Culture Collection (ATCC) (Manassas, Va., USA). […] Cell lines were submitted for cell line authentication and were authenticated within 6 months of manuscript preparation through cell line short tandem repeat (STR) profiling (DDC Medical, Fairfield, Ohio and Molecular Diagnostics Laboratory, Dana Farber Cancer Institute). […] PBMCs were generously provided by Dr. Steven Treon and Dr. Guang Yang.
The CellTiter-Glo® assay (Promega, Madison, Wis.) was used for proliferation studies and carried out according to manufacturer instructions. Cell viability is reported as percentage of control (untreated) cells, and error bars represent the standard error of the mean for each data point.

USP10 = USP10 (Homo sapiens, UniProt Q14694); assay: MALDI TOF DUB assay with diubiquitin substrate; type: biochemical; details: diubiquitin (K11) as substrate
Method: (§1) Thirty-one human DUBs were freshly diluted in the reaction buffer (40 mM Tris-HCl, pH 7.6, 5 mM DTT, 0.005% BSA) at different concentrations (see Table 10). […] The enzymes were pre-incubated with the compounds for 30 min at room temperature at 10 μM final concentration. 0.48 μl of di-ubiquitin topoisomers were added to the reaction mixture to initiate the reaction. The reaction was sealed and incubated for 30 min at room temperature and stopped by adding TFA to a final concentration of 2% (v/v).
Mass spectrometry data was acquired on an UltrafleXtreme MALDI-TOF mass spectrometer (Bruker Daltonics) with Compass 1.3 control and processing software. The sample carrier was taught before each analysis to optimize and centre laser shooting. […] Samples were analysed in automatic mode (AutoXecute, Bruker Daltonics). […] An amount of 3,500 shots were summed up in “random walk” and with “large” smartbeam laser focus. Spectra were automatically calibrated on the ^15N-Ub m/z and processed using smoothing (Savitzky-Golay algorithm) and baseline subtraction (‘TopHat’) for reproducible peak annotation on non-resolved isotope distributions: one cycle, 0.2 m/z for the width. For area calculation, the complete isotopic distribution was taken into account. […]

[1] = test system: wt FLT3-expressing leukemia cell lines; assay: FLT3 protein in wt FLT3-expressing leukemia cell lines (immunoblot); type: cell-based, human; details: approximately 23 hours of treatment
Method: Protein lysate preparation, immunoblotting, and immunoprecipitation were carried out as previously described in Weisberg et al. (2002) Cancer Cell 1:433-443.

[2] = test system: panel of 33 recombinant DUB enzymes; details: 10 μM compound; diubiquitin as substrate
Method: as §1, with “Thirty-one human DUBs were freshly diluted in the reaction buffer (40 mM Tris-HCl, pH 7.6, 5 mM DTT, 0.005% BSA) at different concentrations (see Table 10).” left out
Mass spectrometry data was acquired on an UltrafleXtreme MALDI-TOF mass spectrometer (Bruker Daltonics) with Compass 1.3 control and processing software. The sample carrier was taught before each analysis to optimize and centre laser shooting. […] Samples were analysed in automatic mode (AutoXecute, Bruker Daltonics). […] An amount of 3,500 shots were summed up in “random walk” and with “large” smartbeam laser focus. Spectra were automatically calibrated on the ^15N-Ub m/z and processed using smoothing (Savitzky-Golay algorithm) and baseline subtraction (‘TopHat’) for reproducible peak annotation on non-resolved isotope distributions: one cycle, 0.2 m/z for the width. For area calculation, the complete isotopic distribution was taken into account. An in-house made script was used to report—^15N and mono-ubiquitin areas; plotting of graphs, calculation of standard deviation and coefficient of variation (%) were processed in Microsoft Excel.

Sequence of USP10 (Q14694 whole entry): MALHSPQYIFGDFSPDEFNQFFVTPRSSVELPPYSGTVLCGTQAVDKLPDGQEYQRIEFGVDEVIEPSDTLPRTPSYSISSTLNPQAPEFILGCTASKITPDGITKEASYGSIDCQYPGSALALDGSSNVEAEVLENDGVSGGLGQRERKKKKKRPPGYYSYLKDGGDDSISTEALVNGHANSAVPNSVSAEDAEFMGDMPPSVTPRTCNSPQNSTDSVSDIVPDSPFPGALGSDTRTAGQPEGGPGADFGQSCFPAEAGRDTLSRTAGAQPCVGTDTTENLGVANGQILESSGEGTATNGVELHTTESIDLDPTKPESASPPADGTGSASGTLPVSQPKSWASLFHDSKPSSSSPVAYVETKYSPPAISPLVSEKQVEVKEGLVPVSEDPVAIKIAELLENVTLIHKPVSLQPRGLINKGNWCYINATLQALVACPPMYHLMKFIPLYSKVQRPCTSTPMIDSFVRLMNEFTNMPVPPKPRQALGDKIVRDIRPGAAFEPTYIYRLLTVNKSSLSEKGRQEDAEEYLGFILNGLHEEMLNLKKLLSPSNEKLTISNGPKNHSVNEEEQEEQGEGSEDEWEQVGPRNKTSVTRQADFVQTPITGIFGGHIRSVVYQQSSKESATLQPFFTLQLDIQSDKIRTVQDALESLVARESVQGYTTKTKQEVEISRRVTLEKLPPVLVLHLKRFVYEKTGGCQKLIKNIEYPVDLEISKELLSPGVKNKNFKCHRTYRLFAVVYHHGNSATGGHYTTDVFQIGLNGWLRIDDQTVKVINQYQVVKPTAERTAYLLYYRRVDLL

## CN(CCCNC(=O)c1ccc2nc3c(c(Cl)c2c1)CCCC3)Cc1ccccc1 [HBX19818, reference compound]
Ba/F3-FLT3-ITD cells
  Proliferation EC50: single digit micromolar range
USP10
  pIC50: 4.85
[1]
  FLT3 protein: little to no impact
[2]
  Inhibition of DUBs other than USP10: ≤ 20%
